Measurements published in patent publication US12570642B2, “GLP-IR modulating compounds” (Gilead Sciences, Inc., priority 2021, dated 2026).

target: GLP-1R (Homo sapiens, UniProt P43220); experiment: GLP-1R Activation - cAMP Assay; assay type: cell-based; details: cAMP increase in CHO cells stably expressing GLP-1R; each compound run on one of the two cAMP assays (Assay 1 or Assay 2, not specified)
Method in brief: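 cAMP rise read by HTRF after 30 min agonist exposure (10-point titration, 37 °C) in HBSS/20 mM Hepes/0.1% BSA, following 1 h pre-incubation. Cells: stable GLP-1R CHO line, 1,000/well, seeded overnight. Sigmoidal fit of response vs log concentration gives EC50.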

GLP-1R, sequence (P43220 24-463): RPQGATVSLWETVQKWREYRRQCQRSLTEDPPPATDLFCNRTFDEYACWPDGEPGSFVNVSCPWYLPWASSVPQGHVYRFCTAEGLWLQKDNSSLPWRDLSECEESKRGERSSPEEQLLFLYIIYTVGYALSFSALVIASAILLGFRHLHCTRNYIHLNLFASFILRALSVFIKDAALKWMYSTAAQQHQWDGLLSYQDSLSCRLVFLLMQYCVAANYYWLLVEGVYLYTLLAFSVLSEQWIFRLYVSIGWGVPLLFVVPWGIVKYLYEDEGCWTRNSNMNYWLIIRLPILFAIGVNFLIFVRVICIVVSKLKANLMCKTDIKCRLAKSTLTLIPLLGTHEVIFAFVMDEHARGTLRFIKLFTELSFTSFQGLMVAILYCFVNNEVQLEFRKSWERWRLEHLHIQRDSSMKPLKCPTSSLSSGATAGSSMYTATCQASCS

Structure (SMILES) | EC50 [nM]
COCCn1c(Cc2cc(F)c(-c3ccnc(OCc4cnc(-n5ccnn5)cc4Cl)n3)cc2F)nc2ccc(C(=O)O)cc21 [Example 389, 2-(4-(2-((4-chloro-6-(1H-1,2,3-triazol-1-yl)pyridin-3-yl)methoxy)pyrimidin-4-yl)-2,5-difluorobenzyl)-1-(2-methoxyethyl)-1H-benzo[d]imidazole-6-carboxylic acid] | 0.55
COCCn1c(Cc2cc(F)c(-c3ccc(F)c(OCc4cnc(-n5ccnn5)cc4Cl)c3)cc2F)nc2ccc(C(=O)O)cc21 [Example 390, 2-((3′-((4-chloro-6-(1H-1,2,3-triazol-1-yl)pyridin-3-yl)methoxy)-2,4′,5-trifluoro-[1,1′-biphenyl]-4-yl)methyl)-1-(2-methoxyethyl)-1H-benzo[d]imidazole-6-carboxylic acid] | 3.12
CC1(C)COC[C@H]1n1c(Cc2cc(F)c(-c3cccc(OCc4ccc(Cl)c(Cl)c4)n3)cc2F)nc2ccc(C(=O)O)cc21 [Example 393, (S)-2-(4-(6-((3,4-dichlorobenzyl)oxy)pyridin-2-yl)-2,5-difluorobenzyl)-1-(4,4-dimethyltetrahydrofuran-3-yl)-1H-benzo[d]imidazole-6-carboxylic acid] | 0.652
CC1(C)COC[C@H]1n1c(Cc2cc(F)c(-c3cccc(OCc4ccc(Cl)c(F)c4)n3)cc2F)nc2ccc(C(=O)O)cc21 [Example 394, (S)-2-(4-(6-((4-chloro-3-fluorobenzyl)oxy)pyridin-2-yl)-2,5-difluorobenzyl)-1-(4,4-dimethyltetrahydrofuran-3-yl)-1H-benzo[d]imidazole-6-carboxylic acid] | 0.243
CC1(C)COC[C@H]1n1c(Cc2cc(F)c(-c3cccc(OCc4ccc(C#N)cc4)n3)cc2F)nc2cc(Cl)c(C(=O)O)cc21 [Example 397, (S)-5-chloro-2-(4-(6-((4-cyanobenzyl)oxy)pyridin-2-yl)-2,5-difluorobenzyl)-1-(4,4-dimethyltetrahydrofuran-3-yl)-1H-benzo[d]imidazole-6-carboxylic Acid] | 0.546
CC1(C)COC[C@H]1n1c(Cc2cc(F)c(-c3cccc(OCc4ccc(Cl)cc4F)n3)cc2F)nc2cc(O)c(C(=O)O)cc21 [Example 400, (S)-2-(4-(6-((4-chloro-2-fluorobenzyl)oxy)pyridin-2-yl)-2,5-difluorobenzyl)-1-(4,4-dimethyltetrahydrofuran-3-yl)-5-hydroxy-1H-benzo[d]imidazole-6-carboxylic acid] | 0.44
CC1(C)COC[C@H]1n1c(Cc2cc(F)c(-c3cccc(OCc4ccc(C#N)cc4)n3)cc2F)nc2cc(O)c(C(=O)O)cc21 [Example 401, (S)-2-(4-(6-((4-cyanobenzyl)oxy)pyridin-2-yl)-2,5-difluorobenzyl)-1-(4,4-dimethyltetrahydrofuran-3-yl)-5-hydroxy-1H-benzo[d]imidazole-6-carboxylic acid] | 0.247
CC1(C)COC[C@H]1n1c(Cc2cc(F)c(-c3cccc(OCc4ccc(Cl)cc4F)n3)cc2F)nc2cc(Cl)c(C(=O)O)cc21 [Example 402, (S)-5-chloro-2-(4-(6-((4-chloro-2-fluorobenzyl)oxy)pyridin-2-yl)-2,5-difluorobenzyl)-1-(4,4-dimethyltetrahydrofuran-3-yl)-1H-benzo[d]imidazole-6-carboxylic acid] | 0.561
CC1(C)COC[C@H]1n1c(Cc2cc(F)c(-c3nccc(OCc4ccc(Cl)cc4F)n3)cc2F)nc2ccc(C(=O)O)cc21 [Example 405, (S)-2-(4-(4-((4-chloro-2-fluorobenzyl)oxy)pyrimidin-2-yl)-2,5-difluorobenzyl)-1-(4,4-dimethyltetrahydrofuran-3-yl)-1H-benzo[d]imidazole-6-carboxylic acid] | 0.337

Now those with a lower EC50, led by results:

EC50 [nM] | Structure (SMILES)
0.043 | CC1(C)COCC1n1c(Cc2cc(F)c(-c3cccc(OCc4ccc(Cl)cc4)n3)cc2F)nc2ccc(C(=O)O)cc21 (stereo not drawn) [Example 387, 2-(4-(6-((4-chlorobenzyl)oxy)pyridin-2-yl)-2,5-difluorobenzyl)-1-(4,4-dimethyltetrahydrofuran-3-yl)-1H-benzo[d]imidazole-6-carboxylic acid]
0.053 | CC1(C)COC[C@H]1n1c(Cc2cc(F)c(-c3ccc(F)c(OCc4cnc(-n5ccnn5)cc4Cl)c3)cc2F)nc2ccc(C(=O)O)cc21 [Example 388, (S)-2-((3′-((4-chloro-6-(1H-1,2,3-triazol-1-yl)pyridin-3-yl)methoxy)-2,4′,5-trifluoro-[1,1′-biphenyl]-4-yl)methyl)-1-(4,4-dimethyltetrahydrofuran-3-yl)-1H-benzo[d]imidazole-6-carboxylic acid]
0.107 | COCCn1c(Cc2c(F)cc(-c3cccc(OCc4cnc(-n5ccnn5)cc4Cl)n3)c(F)c2F)nc2ccc(C(=O)O)cc21 [Example 391, 2-(4-(6-((4-chloro-6-(1H-1,2,3-triazol-1-yl)pyridin-3-yl)methoxy)pyridin-2-yl)-2,3,6-trifluorobenzyl)-1-(2-methoxyethyl)-1H-benzo[d]imidazole-6-carboxylic acid]
0.036 | COCCn1c(Cc2c(F)cc(-c3ccc(F)c(OCc4cnc(-n5ccnn5)cc4Cl)n3)c(F)c2F)nc2ccc(C(=O)O)cc21 [Example 392, 2-(4-(6-((4-chloro-6-(1H-1,2,3-triazol-1-yl)pyridin-3-yl)methoxy)-5-fluoropyridin-2-yl)-2,3,6-trifluorobenzyl)-1-(2-methoxyethyl)-1H-benzo[d]imidazole-6-carboxylic acid]
0.157 | CC1(C)COC[C@H]1n1c(Cc2cc(F)c(-c3ccc(F)c(OCc4ccc(C#N)cc4)n3)cc2F)nc2ccc(C(=O)O)nc21 [Example 396, (S)-2-(4-(6-((4-cyanobenzyl)oxy)-5-fluoropyridin-2-yl)-2,5-difluorobenzyl)-3-(4,4-dimethyltetrahydrofuran-3-yl)-3H-imidazo[4,5-b]pyridine-5-carboxylic acid]
0.217 | CC1(C)COC[C@H]1n1c(Cc2cc(F)c(-c3ccc(F)c(OCc4ccc(Cl)cc4Cl)n3)cc2F)nc2ccc(C(=O)O)cc21 [Example 398, (S)-2-(4-(6-((2,4-dichlorobenzyl)oxy)-5-fluoropyridin-2-yl)-2,5-difluorobenzyl)-1-(4,4-dimethyltetrahydrofuran-3-yl)-1H-benzo[d]imidazole-6-carboxylic acid]
0.124 | CC1(C)COC[C@H]1n1c(Cc2cc(F)c(-c3cccc(OCc4ccc(Cl)cc4Cl)n3)cc2F)nc2ccc(C(=O)O)cc21 [Example 399, (S)-2-(4-(6-((2,4-dichlorobenzyl)oxy)pyridin-2-yl)-2,5-difluorobenzyl)-1-(4,4-dimethyltetrahydrofuran-3-yl)-1H-benzo[d]imidazole-6-carboxylic acid]
0.081 | COCCn1c(Cc2c(F)cc(-c3cccc(OCc4ccc(-n5ccnn5)cc4Cl)n3)c(F)c2F)nc2ccc(C(=O)O)cc21 [Example 403, 2-(4-(6-((2-chloro-4-(1H-1,2,3-triazol-1-yl)benzyl)oxy)pyridin-2-yl)-2,3,6-trifluorobenzyl)-1-(2-methoxyethyl)-1H-benzo[d]imidazole-6-carboxylic acid]
0.068 | CC1(C)COC[C@H]1n1c(Cc2cc(F)c(-c3ccnc(OCc4ccc(Cl)cc4Cl)n3)cc2F)nc2c(F)cc(C(=O)O)cc21 [Example 404, (S)-2-(4-(2-((2,4-dichlorobenzyl)oxy)pyrimidin-4-yl)-2,5-difluorobenzyl)-1-(4,4-dimethyltetrahydrofuran-3-yl)-4-fluoro-1H-benzo[d]imidazole-6-carboxylic acid]
